Where two headings read alike, the source gives them in different places.
Columns and labels:
Assay type in all cases: cell-based
Du145 = assay: MTT cell proliferation assay, Du145; details: mean±SD, n=3
Procedure: [The source words this procedure for another cell line and reports this cell line under the same test.] (§1) Primary bovine retinal capillary endothelial cells (BRCECs), pericytes and human prostate adenocarcinoma cells (PC-3), and human breast cancer cells (MCF-7 and MDA-MB-231) were treated with the CLT010 compounds at various concentrations for 72 hours.

[1] = test system: human breast cancer cells (MDA-MB-231); assay: MTT cell proliferation assay, MDA-MB-231; details: mean±SD, n=3
Procedure: as §1

[2] = test system: VEGF in human retinal capillary endothelial cells (HRCECs); assay: CoCl2-induced VEGF over-expression, ELISA of conditioned medium; details: 24 h, CoCl2 200 μM; for reduction of VEGF levels: n=3
Procedure: To address if new antioxidants block VEGF over-expression induced by hypoxia, we measured levels of VEGF in human retinal capillary endothelial cells (HRCECs) after the exposure of CLT010-01, CLT010-07, and CLT010-12. The effect of new oxidants was compared with curcumin. HRCECs were seeded at a density of 4×10^4 cells/well in 400 μl of growth medium in triplicate in gelatin-coated 24-well plates, 24 h prior to the experiments. VEGF over-expression was induced by 200 μM of cobalt chloride (CoCl2). Cells were incubated with the medium in the presence or absence of CoCl2 and CoCl2 plus curcumin, CLT010-01, CLT010-07 and CLT010-12 at the concentrations of 0.5, 2, and 4 μM. The conditioned medium was collected 24 h after treatment. VEGF concentrations were measured by ELISA specific for VEGF using a commercial kit (R & D Systems, Minneapolis, Minn.). CoCl2 induced VEGF over-expression by 53.1±13.9%, compared to the untreated cells. The novel antioxidants reduced the expression of VEGF (FIGS. 3A and 3B). CLT010-01 reduced the VEGF levels by 48.8±7.8% at 4 μM (p<0.001, n=3). CLT010-07 inhibited the VEGF levels by 45.2±8.5 (p<0.01, n=3) and 57.2±4.4% (p<0.001, n=3) at 2 and 4 μM, respectively. CLT010-12 suppressed the VEGF expression by 24.2±10 (p<0.01, n=3), 58.2±7.2 (p<0.001, n=3), and 67.3±4.4% (p<0.001, n=3) at 0.5, 2 and 4 μM (p<0.001, n=3), respectively (FIG. 3B).
According to embodiments of experimental data shown in FIG. 3, HRCECs were cultured in the presence or absence of CoCl2, CoCl2 plus curcumin, CLT010-01, CLT010-07, and CLT010-12 at concentrations as indicated. The conditioned medium was collected after 24 h treatment. VEGF levels were measured by ELISA. In FIG. 3A, VEGF concentrations in the medium from the untreated cells, CoCl2-treated cells, and CoCl2 plus compound-treated cells are shown. In FIG. 3B, the percentage of VEGF concentrations in the medium from CoCl2 plus compound-treated cells compared with that of the medium from CoCl2-treated cells is shown. CoCl2 plus compounds plus vs. CoCl2: *p<0.01, p<0.001, n=3.

[3] = test system: human breast cancer cells (MCF-7); assay: MTT cell proliferation assay, MCF-7; details: mean±SD, n=3
Procedure: as §1

[4] = test system: human prostate adenocarcinoma cells (PC-3); assay: MTT cell proliferation assay, PC-3; details: 72 hours, mean±SD, n=3
Procedure: as §1

pericytes = assay: MTT cell proliferation assay, pericytes; details: 72 hours
Procedure: as §1

[5] = test system: TNF-α-stimulated generation of reactive oxygen species in human retinal pigment epithelial cells (ARPE-19); assay: TNF-α-stimulated intracellular ROS generation (CM-H2DCFDA fluorescence); details: for reduction of ROS: 24 h pretreatment, TNF-α 20 ng/ml, ARPE-19, n=6; for effect on ROS production: same concentration range (2-8 μM), same conditions
Procedure: The intracellular generation of ROS was stimulated by TNF-α. Human retinal pigment epithelial cells (ARPE-19) were cultured on 96-well plates and pretreated with or without aminoguanidine, curcumin, and the CLT010 compounds for 24 h. TNF-α was added into culture medium at the concentration of 20 ng/ml and incubated with the cells for 1 h at 37° C. To measure ROS generation, 5-(and -6)-chloromethyl-2′,7′-dichlorodihydrofluorescein diacetate (CM-H2DCFDA) was added to the cells and incubated for 45 min. The relative fluorescence intensity representing the intracellular generation of ROS was measured using FLUOstar Omega at an emission wavelength of 535 nm, after excitation at 485 nm. TNF-α stimulated the intracellular generation of ROS by 36.9±8.4%, compounded with the untreated cells. Novel antioxidants reduced the intracellular ROS. At concentration of 8 μM, CLT010-01 reduced ROS by 40.5±6.3% (p<0.01, n=6), and CLT010-07 reduced ROS by 50.6±6.8% (p<0.01, n=6).
According to embodiments of experimental data shown in FIG. 2, ARPE-19 cells were pretreated with aminoguanidine, curcumin, CLT010-01, CLT010-07, and CLT010-12 at indicated concentrations for 24 h prior to the addition of TNF-α (20 ng/ml). The cells were incubated with CM-H2DCFDA for 45 min. Relative fluorescent intensity in the untreated cells, TNF-α-stimulated cells and compound plus TNF-α-treated cells. In FIG. 2B, the percentage of relative fluorescent intensity in each compound plus TNF-α-treated cells compared with that of TNF-α-stimulated cells is shown as the compound plus TNF-α vs TNF-α alone: *p<0.05, p<0.01, n=6.

PC-3M = assay: MTT cell proliferation assay, PC-3M; details: 72 hours, mean±SD, n=3
Procedure: [The source words this procedure for another cell line and reports this cell line under the same test.] as §1

[6] = test system: Primary bovine retinal capillary endothelial cells (BRCECs); assay: MTT cell proliferation assay, BRCECs; details: 72 hours, mean±SD, n=3, read-out: IC50 (μM) BRCEC
Procedure: as §1

cancer cells = assay: MTT cell proliferation assay, cancer cells (summary over lines); details: Homo sapiens, 72 hours, range across cancer cell lines, read-out: IC50, growth of cancer cells (range over cell lines)
Procedure: as §1

Compound	IC50 (Du145; 72 hours) [µM]	IC50 ([1]; 72 hours) [µM]	reduction of VEGF levels ([2]; 2 μM) [%]	reduction of VEGF levels ([2]; 4 μM) [%]	IC50 ([3]; 72 hours) [µM]	IC50 [4] [µM]	inhibition of the growth of pericytes (pericytes)	reduction of ROS ([5]; 8 μM) [%]	IC50 (PC-3M) [µM]	IC50 [6] [µM]	effect on ROS production [5]	IC50 ([6]; Bos taurus, Endothelial cell) [µM]	other results
COc1cc(/C=C/c2cc(/C=C/c3ccc(OS(N)(=O)=O)c(OC)c3)[nH]n2)ccc1OS(N)(=O)=O [CLT010-07]	5.3 ± 2.4	6.2 ± 1.6	45.2±8.5	57.2±4.4	6.5 ± 0.1	1.8 ± 0.3	did not significantly inhibit	50.6±6.8	6.7 ± 0.7	3.9 ± 0.1	–	–	–
COc1cc(/C=C/C(=O)CC(=O)/C=C/c2ccc(O)c(OC)c2)ccc1O [Curcumin]	–	–	–	–	–	–	–	–	–	–	did not significantly affect	13.8	IC50 (Du145; Homo sapiens, DU-145, 72 hours): 20.7 ± 3.5 µM; IC50 ([1]; Homo sapiens, MDA-MB-231, 72 hours): 25.6 ± 4.8 µM; inhibition of the release of VEGF from cells into medium ([2]; 0.5, 2, and 4 μM, p>0.05, n=3): did not significantly inhibit; IC50 (cancer cells): 9.5 to 25.6 µM; IC50 ([3]; Homo sapiens, MCF7, 72 hours): 21.5 ± 4.7 µM; IC50 ([4]; Homo sapiens): 9.5 ± 1.6 µM; IC50 (PC-3M; Homo sapiens, PC-3M): 10.7 ± 1.3 µM
N=C(N)NN [Aminoguanidine, reference compound]	–	–	–	–	–	–	–	–	–	–	did not significantly affect	> 32	–
COc1cc(/C=C/C(=O)/C=C/c2cc(OC)c(OS(N)(=O)=O)c(OC)c2)cc(OC)c1OS(N)(=O)=O [CLT010-12]	6.3 ± 0.2	0.6 ± 0.1	58.2±7.2	67.3±4.4	1.5 ± 0.1	1.9 ± 0.04	did not significantly inhibit	55.1±3.9	4.2 ± 0.1	3.6 ± 0.2	–	–	reduction of VEGF levels ([2]; 0.5 μM): 24.2±10%; reduction of ROS ([5]; 2 μM): 15.3±2.9%; reduction of ROS ([5]; 4 μM): 32.9±5.9%
COc1cc(/C=C/C(=O)CC(=O)/C=C/c2ccc(OS(N)(=O)=O)c(OC)c2)ccc1OS(N)(=O)=O [CLT010-01]	25.9 ± 0.3	3.1 ± 1.3	–	48.8±7.8	5.5 ± 1.2	15.8 ± 1.6	did not significantly inhibit	40.5±6.3	8.5 ± 0.5	–	–	–	–

Source: patent US8329757B2, “Curcumin analog compositions and related methods” (Charlesson, LLC, priority 2008, dated 2012)
